In US20110230481A2, “DERIVATIVES OF TETRABROMOBENZIMIDAZOLE, A PROCESS FOR THE PREPARATION THEREOF, A PHARMACEUTICAL COMPOSITION COMPRISING THE SAME, A METHOD OF USING THE SAME, A METHOD FOR MODULATING OR REGULATING SERINE/THREONINE KINASES, AND SERINE/THREONINE KINASES MODULATING AGENT” (SELVITA S.A., priority 2009, published 2011):

Experiments:
Assay in all cases: KINOMEscan Max
Type in all cases: binding
MARK2 = MARK2 (Homo sapiens, UniProt Q7KZI7)
Method in brief: (§1)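 Compound displacement of DNA-tagged kinase from immobilized active-site ligand; qPCR of tag as read-out.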

ABL2 = ABL2 (Homo sapiens, UniProt P42684)
Method in brief: as §1

FLT4 = FLT4 (Homo sapiens, UniProt P35916)
Method in brief: as §1

STK36 = target: T1, STK36 (Homo sapiens, UniProt Q9NRP7)
T1 construct: DNA tag (qPCR read-out)
T1 sequence (Q9NRP7 whole entry): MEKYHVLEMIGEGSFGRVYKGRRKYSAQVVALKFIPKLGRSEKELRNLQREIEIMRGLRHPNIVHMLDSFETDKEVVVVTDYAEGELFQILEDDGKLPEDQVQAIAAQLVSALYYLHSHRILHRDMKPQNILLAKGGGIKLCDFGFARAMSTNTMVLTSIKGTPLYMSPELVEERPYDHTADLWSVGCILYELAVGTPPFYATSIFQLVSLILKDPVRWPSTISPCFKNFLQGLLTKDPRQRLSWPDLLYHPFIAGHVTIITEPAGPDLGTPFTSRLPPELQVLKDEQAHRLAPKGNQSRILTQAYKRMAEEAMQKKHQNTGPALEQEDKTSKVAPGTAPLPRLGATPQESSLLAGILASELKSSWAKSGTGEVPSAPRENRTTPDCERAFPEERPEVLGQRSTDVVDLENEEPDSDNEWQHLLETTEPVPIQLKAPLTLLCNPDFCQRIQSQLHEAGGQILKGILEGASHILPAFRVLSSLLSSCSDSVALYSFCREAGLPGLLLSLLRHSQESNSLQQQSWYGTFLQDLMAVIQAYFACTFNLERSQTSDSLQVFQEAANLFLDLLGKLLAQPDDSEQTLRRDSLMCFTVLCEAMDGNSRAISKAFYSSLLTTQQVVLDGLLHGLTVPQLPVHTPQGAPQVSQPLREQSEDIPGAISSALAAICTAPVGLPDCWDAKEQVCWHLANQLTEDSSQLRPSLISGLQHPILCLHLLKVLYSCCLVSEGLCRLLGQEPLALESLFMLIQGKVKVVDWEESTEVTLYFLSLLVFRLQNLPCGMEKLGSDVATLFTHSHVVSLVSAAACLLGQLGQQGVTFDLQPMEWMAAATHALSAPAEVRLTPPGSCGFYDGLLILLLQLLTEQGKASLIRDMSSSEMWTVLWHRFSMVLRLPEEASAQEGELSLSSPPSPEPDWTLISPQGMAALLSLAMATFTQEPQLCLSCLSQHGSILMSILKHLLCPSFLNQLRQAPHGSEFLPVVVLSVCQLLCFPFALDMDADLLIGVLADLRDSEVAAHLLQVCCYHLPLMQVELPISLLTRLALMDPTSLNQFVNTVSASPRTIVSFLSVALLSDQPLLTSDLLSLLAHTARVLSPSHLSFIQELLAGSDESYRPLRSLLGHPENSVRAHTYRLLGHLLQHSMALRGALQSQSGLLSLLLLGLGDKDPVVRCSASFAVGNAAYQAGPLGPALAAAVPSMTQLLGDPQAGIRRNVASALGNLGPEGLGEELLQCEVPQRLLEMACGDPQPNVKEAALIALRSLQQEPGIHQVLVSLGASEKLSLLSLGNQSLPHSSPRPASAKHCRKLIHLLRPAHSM
Method in brief: as §1

CDC2L2 = target: T2, CDC2L2 (Homo sapiens, UniProt Q9UQ88)
T2 construct: purchased Ambit (KINOMEscan Max service)
Method in brief: as §1

BRAF(V600E) = BRAF(V600E) (Homo sapiens, UniProt P15056, V600E)
Chain of BRAF(V600E) (P15056 whole entry V600E): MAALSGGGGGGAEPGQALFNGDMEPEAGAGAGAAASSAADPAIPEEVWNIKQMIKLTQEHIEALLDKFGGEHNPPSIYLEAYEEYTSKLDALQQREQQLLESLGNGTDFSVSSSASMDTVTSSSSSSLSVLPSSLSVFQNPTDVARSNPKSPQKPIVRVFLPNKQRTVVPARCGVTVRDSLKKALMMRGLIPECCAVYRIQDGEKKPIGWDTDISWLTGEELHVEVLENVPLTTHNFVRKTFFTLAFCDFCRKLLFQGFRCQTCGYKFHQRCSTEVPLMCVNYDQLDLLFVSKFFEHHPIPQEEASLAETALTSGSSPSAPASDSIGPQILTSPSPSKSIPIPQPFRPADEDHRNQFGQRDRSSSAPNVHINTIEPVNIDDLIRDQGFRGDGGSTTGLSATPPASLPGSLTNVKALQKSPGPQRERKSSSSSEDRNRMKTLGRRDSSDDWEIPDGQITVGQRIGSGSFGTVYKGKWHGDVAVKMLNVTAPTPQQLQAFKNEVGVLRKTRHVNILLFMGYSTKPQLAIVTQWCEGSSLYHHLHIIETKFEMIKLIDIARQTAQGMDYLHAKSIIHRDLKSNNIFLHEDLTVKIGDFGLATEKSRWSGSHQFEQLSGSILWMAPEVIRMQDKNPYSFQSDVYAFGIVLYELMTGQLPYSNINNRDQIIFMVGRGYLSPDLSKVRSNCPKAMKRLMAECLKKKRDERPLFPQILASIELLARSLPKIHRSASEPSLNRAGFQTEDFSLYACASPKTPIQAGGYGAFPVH
Method in brief: as §1

PIK3CA(H1047Y) = target: T3, PIK3CA(H1047Y) (Homo sapiens, UniProt P42336, H1047Y)
T3 construct: DNA tag (qPCR read-out)
T3 sequence (P42336 whole entry H1047Y): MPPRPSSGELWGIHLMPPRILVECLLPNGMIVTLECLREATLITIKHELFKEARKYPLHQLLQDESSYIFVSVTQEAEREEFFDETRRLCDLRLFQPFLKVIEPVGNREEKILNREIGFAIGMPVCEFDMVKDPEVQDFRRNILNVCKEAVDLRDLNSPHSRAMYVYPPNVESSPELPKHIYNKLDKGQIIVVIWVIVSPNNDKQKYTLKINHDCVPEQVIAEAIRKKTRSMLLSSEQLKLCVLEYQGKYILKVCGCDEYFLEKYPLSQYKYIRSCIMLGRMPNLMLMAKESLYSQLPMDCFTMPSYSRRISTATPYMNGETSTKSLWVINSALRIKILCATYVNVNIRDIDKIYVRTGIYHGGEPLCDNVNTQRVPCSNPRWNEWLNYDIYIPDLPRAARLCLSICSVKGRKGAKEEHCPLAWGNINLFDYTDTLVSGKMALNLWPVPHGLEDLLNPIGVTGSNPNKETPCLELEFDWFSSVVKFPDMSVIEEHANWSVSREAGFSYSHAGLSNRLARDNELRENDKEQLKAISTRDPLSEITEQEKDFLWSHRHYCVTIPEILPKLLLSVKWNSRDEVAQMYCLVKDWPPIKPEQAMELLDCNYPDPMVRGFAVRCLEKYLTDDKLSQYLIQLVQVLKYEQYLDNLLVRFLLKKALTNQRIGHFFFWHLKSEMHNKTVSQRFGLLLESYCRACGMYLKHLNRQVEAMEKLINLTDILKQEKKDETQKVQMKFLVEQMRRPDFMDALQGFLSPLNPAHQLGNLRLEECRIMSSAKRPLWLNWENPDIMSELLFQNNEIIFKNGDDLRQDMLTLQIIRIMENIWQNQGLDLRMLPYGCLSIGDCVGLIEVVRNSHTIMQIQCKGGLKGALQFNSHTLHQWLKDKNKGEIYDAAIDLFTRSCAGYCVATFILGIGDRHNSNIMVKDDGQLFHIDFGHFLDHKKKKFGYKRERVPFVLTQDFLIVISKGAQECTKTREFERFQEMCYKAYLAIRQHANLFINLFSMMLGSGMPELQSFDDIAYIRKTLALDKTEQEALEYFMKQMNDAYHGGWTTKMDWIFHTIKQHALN
Method in brief: as §1

YANK3 = YANK3 (Homo sapiens, UniProt Q86UX6)
Method in brief: as §1

[1] = target: T4, TYK2(JH2domain-pseudokinase) (Homo sapiens, UniProt P29597); details: 1 μM
T4 construct: TYK2(JH2domain-pseudokinase); purchased Ambit Kinomescan (contract screening service)
T4 sequence (P29597 589-875 limits assumed): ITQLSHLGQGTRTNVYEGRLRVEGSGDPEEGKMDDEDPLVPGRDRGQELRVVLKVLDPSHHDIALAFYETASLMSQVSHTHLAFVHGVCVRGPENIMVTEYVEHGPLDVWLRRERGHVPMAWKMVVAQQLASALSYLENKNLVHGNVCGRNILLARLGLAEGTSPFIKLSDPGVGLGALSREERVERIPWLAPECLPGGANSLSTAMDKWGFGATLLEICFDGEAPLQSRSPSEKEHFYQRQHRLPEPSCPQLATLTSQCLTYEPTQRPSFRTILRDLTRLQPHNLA
Method in brief: as §1

TAOK2 = target: T5, TAOK2 (Homo sapiens, UniProt Q9UL54)
T5 construct: DNA tag (qPCR read-out)
Method in brief: as §1

CDK5 = target: T6, CDK5 (Homo sapiens, UniProt Q00535)
T6 construct: DNA tag (qPCR label); purchased Ambit Kinomescan (contract screening)
Method in brief: as §1

MELK = target: T7, MELK (Homo sapiens, UniProt Q14680)
T7 construct: purchased Ambit (KINOMEscan Max service)
Method in brief: as §1

NEK6 = NEK6 (Homo sapiens, UniProt Q9HC98)
Method in brief: as §1

PAK3 = PAK3 (Homo sapiens, UniProt O75914)
Method in brief: as §1

MET = target: T8, MET (Homo sapiens, UniProt P08581); details: 1 μM
T8 construct: purchased Ambit Kinomescan (contract screening)
Method in brief: as §1

PIK3CA(M1043I) = target: T9, PIK3CA(M1043I) (Homo sapiens, UniProt P42336, M1043I)
T9 construct: DNA tag (qPCR read-out)
Method in brief: as §1

PKN1 = target: T10, PKN1 (Homo sapiens, UniProt Q16512)
T10 construct: DNA tag (qPCR read-out)
Method in brief: as §1

AMPK-alpha2 = target: T11, AMPK-alpha2 (Homo sapiens, UniProt P54646)
T11 construct: DNA tag (qPCR label); purchased Ambit Kinomescan (contract screening)
T11 sequence (P54646 whole entry): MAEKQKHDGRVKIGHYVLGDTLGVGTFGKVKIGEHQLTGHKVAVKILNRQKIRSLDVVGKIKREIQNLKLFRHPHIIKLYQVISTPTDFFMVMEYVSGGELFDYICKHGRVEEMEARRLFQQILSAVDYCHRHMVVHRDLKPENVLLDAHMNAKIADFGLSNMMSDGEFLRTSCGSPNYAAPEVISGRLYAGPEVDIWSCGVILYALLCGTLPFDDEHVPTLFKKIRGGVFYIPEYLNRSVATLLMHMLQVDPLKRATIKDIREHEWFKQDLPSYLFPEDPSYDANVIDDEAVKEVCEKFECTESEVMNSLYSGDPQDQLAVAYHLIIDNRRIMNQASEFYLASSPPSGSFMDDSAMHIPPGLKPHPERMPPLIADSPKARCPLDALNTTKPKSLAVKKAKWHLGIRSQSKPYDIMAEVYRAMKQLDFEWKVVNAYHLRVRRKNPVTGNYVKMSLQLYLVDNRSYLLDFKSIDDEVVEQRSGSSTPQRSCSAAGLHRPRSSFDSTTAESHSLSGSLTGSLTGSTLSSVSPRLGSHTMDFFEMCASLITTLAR
Method in brief: as §1

HUNK = target: T12, HUNK (Homo sapiens, UniProt P57058)
T12 construct: purchased Ambit Kinomescan (contract panel, KINOMEscan Max)
Method in brief: as §1

JNK3 = target: T13, JNK3 (Homo sapiens, UniProt P53779); details: 1 μM
T13 construct: purchased Ambit Kinomescan (contract panel)
Method in brief: as §1

CDK2 = target: T14, CDK2 (Homo sapiens, UniProt P24941); details: 1 μM
T14 construct: purchased Ambit (KINOMEscan Max service)
Method in brief: as §1

BMPR1B = target: T15, BMPR1B (Homo sapiens, UniProt O00238)
T15 construct: DNA tag (qPCR label); purchased Ambit Kinomescan (contract screening)
Method in brief: as §1

MLK1 = MLK1 (Homo sapiens, UniProt P80192)
Chain of MLK1 (P80192 whole entry): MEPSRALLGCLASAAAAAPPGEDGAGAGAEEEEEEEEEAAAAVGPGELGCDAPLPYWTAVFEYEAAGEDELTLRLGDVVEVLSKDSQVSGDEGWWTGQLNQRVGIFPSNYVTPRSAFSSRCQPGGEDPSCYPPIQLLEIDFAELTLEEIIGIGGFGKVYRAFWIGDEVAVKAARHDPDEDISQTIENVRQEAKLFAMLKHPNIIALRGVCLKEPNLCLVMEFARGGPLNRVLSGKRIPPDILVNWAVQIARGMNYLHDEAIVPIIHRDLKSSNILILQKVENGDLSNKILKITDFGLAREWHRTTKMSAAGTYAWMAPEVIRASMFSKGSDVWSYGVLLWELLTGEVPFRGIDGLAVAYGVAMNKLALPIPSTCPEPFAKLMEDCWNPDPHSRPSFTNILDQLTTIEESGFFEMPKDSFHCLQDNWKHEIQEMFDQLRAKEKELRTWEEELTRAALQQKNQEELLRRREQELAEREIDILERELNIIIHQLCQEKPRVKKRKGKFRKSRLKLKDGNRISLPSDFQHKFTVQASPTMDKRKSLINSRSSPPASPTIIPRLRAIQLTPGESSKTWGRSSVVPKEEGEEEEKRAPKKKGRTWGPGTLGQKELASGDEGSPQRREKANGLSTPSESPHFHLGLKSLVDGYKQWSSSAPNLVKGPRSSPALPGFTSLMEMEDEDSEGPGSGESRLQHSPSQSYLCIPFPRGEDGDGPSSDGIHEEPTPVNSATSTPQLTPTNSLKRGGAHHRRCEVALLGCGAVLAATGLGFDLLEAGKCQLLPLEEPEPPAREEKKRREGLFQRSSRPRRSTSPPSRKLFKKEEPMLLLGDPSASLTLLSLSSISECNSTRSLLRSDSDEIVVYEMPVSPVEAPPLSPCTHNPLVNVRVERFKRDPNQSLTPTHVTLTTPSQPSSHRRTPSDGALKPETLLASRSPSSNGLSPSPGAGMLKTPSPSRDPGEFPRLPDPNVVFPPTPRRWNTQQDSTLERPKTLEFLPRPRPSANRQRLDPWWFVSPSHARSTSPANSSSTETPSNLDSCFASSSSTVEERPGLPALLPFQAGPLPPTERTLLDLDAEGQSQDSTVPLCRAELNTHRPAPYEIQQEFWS
Method in brief: as §1

CIT = CIT (Homo sapiens, UniProt O14578); details: 1 μM
Method in brief: as §1

NIM1 = NIM1 (Homo sapiens, UniProt Q8IY84)
Method in brief: as §1

MAP4K2 = MAP4K2 (Homo sapiens, UniProt Q12851)
Method in brief: as §1

TESK1 = TESK1 (Homo sapiens, UniProt Q15569)
Method in brief: as §1

KIT = KIT (Homo sapiens, UniProt P10721)
Method in brief: as §1

KIT(V559D) = target: T16, KIT(V559D) (Homo sapiens, UniProt P10721, V559D)
T16 construct: purchased Ambit Kinomescan (contract screening)
Method in brief: as §1

LYN = target: T17, LYN (Homo sapiens, UniProt P07948)
T17 construct: purchased Ambit Kinomescan (contract panel)
Method in brief: as §1

ERN1 = target: T18, ERN1 (Homo sapiens, UniProt O75460)
T18 construct: DNA tag (qPCR read-out)
Method in brief: as §1

IKK-epsilon = target: T19, IKK-epsilon (Homo sapiens, UniProt Q14164)
T19 construct: purchased Ambit Kinomescan (contract panel, KINOMEscan Max)
Method in brief: as §1

CSNK1G2 = target: T20, CSNK1G2 (Homo sapiens, UniProt P78368); details: 1 μM
T20 construct: purchased Ambit (KINOMEscan Max panel service)
Method in brief: as §1

JNK2 = target: T21, JNK2 (Homo sapiens, UniProt P45984); details: 1 μM
T21 construct: purchased Ambit Kinomescan (contract panel)
Method in brief: as §1

ERK8 = ERK8 (Homo sapiens, UniProt Q8TD08)
Method in brief: as §1

NCCCNc1nc2c(Br)c(Br)c(Br)c(Br)c2[nH]1 [Compound 11, N-(3-aminopropyl)-4,5,6,7-tetrabromo-1H-benzo[d]imidazol-2-amine] was tested, and the remaining binding at 1 µM (MARK2) was 94%, the remaining binding at 1 µM (ABL2) was 100% and the remaining binding at 1 µM (FLT4) was 94%. The remaining binding at 1 µM (STK36) was 100%, the remaining binding at 1 µM (CDC2L2) was 82% and the remaining binding at 1 µM (BRAF(V600E)) was 96%. For the same molecule, the remaining binding at 1 µM (PIK3CA(H1047Y)) was 100%, the remaining binding at 1 µM (YANK3) was 93% and the “% binding” value [1] was 100%. The remaining binding at 1 µM (TAOK2) was 100%, the remaining binding at 1 µM (CDK5) was 100% and the remaining binding at 1 µM (MELK) was 82%. For the same molecule, the remaining binding at 1 µM (NEK6) was 100%, the remaining binding at 1 µM (PAK3) was 91% and the “% binding” value (MET) was 97%. The remaining binding at 1 µM (PIK3CA(M1043I)) was 100%, the remaining binding at 1 µM (PKN1) was 100% and the remaining binding at 1 µM (AMPK-alpha2) was 100%. The remaining binding at 1 µM (HUNK) was 100%, the “% binding” value (JNK3) was 100% and the “% binding” value (CDK2) was 71%. The remaining binding at 1 µM (BMPR1B) was 100%, the remaining binding at 1 µM (MLK1) was 100% and the “% binding” value (CIT) was 93%. For the same molecule, the remaining binding at 1 µM (NIM1) was 99%, the remaining binding at 1 µM (MAP4K2) was 78% and the remaining binding at 1 µM (TESK1) was 93%. It also gave a remaining binding at 1 µM (KIT) of 96%, a remaining binding at 1 µM (KIT(V559D)) of 97% and a remaining binding at 1 µM (LYN) of 100%. The remaining binding at 1 µM (ERN1) was 91%, the remaining binding at 1 µM (IKK-epsilon) was 100% and the “% binding” value (CSNK1G2) was 100%. For the same molecule, the “% binding” value (JNK2) was 100% and the remaining binding at 1 µM (ERK8) was 72%.
